Data set [1] deals with NEUTROPHILS
As to the kind of experiment: neutrophil superoxide anion release. The class given is cell-based. As to conditions: read-out: IC50 of Compounds in Cells, NEUTROPHILS
As for the experimental part:
(§1) To investigate the effect that Formula I compounds have on cell growth and activity, assays are performed such as to determine growth inhibition of cultured tumor cells and cultured keritinocytes, and neutrophil superoxide anion release by well known techniques.
(§2) Table 1 also includes data from testing in a cellular assay known as the "Bleb" assay. In the Bleb assay K562 cells, a human chronic myeloid leukemia cell line, are treated with compound and scored for the appearance of morphologic changes referred to as blebs on the cell surface. […] H. Osada et al., (1988) 41:7, 925.

In data set [2] the test system is MCF-7. As to the kind of experiment: growth inhibition of cultured tumor cells (MCF-7). In kind it is cell-based. To be noted: Homo sapiens, MCF7, read-out: IC50 of Compounds in Cells, MCF-7. As for the experimental part:
as §1, §2

The test system of data set [3] is phorbol ester-induced mouse ear edema. In words: phorbol ester-induced mouse ear edema model. The class given is in vivo. As for the experimental part: Formula I compounds also have been tested in vivo to determine their antiinflammatory activity. The model used for this testing is the well-known, widely accepted phorbol ester-induced mouse ear edema model wherein the efficacy of a test compound to reduce the edema induced by the phorbol ester is measured.

Data set [4] concerns NHEK. In words: growth inhibition of cultured keritinocytes (NHEK). In kind it is cell-based. As to conditions: read-out: IC50 of Compounds in Cells, NHEK. The method, then:
as §1, §2

Data set [5] has as its system K562 cells. As to the kind of experiment: Bleb assay in K562 cells. The class given is cell-based. As to conditions: Homo sapiens, blebs on the cell surface, read-out: IC50 of Compounds in Cells, BLEB. The method, then: as §2
A short description of data set [6]: water solubility noted during work-up. In kind it is physicochemical. To be noted: observation during HPLC fraction work-up. The method, then:
A solution of 8-exo-[4-(2-carbophenylmethoxy-6-phenylmethoxybenzoyl)-3,5-bis(phenylmethoxy)benzoyloxy]-9-endo-(4-phenylmethoxybenzamido)tricyclo[5.2.1.0 (2,6)]decane (0.33 g, 0.32 mmol) in 6:1 ethanol/ethyl acetate (35 mL) in a 500 mL Parr bottle was treated with trifluoroacetic acid (0.15 mL) and purged with nitrogen. Pearlman's catalyst (150 mg) was added, and the vessel was charged with hydrogen (50 psi) and shaken on a Parr apparatus for 18 h. The bottle was carefully evacuated of hydrogen and the solution was filtered through Celite®, then the filter cake was washed with ethanol, but not allowed to dry. The filtrate was concentrated in vacuo to a foamy yellow solid, which was dissolved in DMF (0.8 mL) and loaded onto HPLC; conditions: A- 0.1% TFA/5% CH3 CN/H2 O, B- CH3 CN, 100% A to 100% B over one h, 25 mL/min, 41×250 mm C18 column. […] (dec). Rf (2:1 methylene chloride/methanol on silica) 0.50; IR (KBr) 1703, 1635, 1608 cm^-1; ^1 H NMR (d6 -DMSO) d 11.66 (s, 2H), 9.97 (br s, 1H), 9.88 (s, 1H), 8.35 (d, 1H, J=7 Hz), 7.75 (d, 2H, J=9 Hz), 7.38 (d, 1H, J=8 Hz), 7.28 (t, 1H, J=8 Hz), 7.06 (d, 1H, J=8 Hz), 6.83 (s, 2H), 6.79 (d, 2H, J=9 Hz), 4.83 (d, 1H, J=2.5 Hz), 4.11 (m, 1H), 2.25 (d, 1H, J=4 Hz), 2.10-2.20 (m, 1H), 2.07 (br s, 2H), 1.60-2.00 (m, 3H), 1.48 (br s, 2H), 1.10-1.30 (m, 1H), 0.90-1.10 (m, 2H); mass spectrum (FAB): m/z 588. […]

In data set [7] the test system is K562 cells. As to conditions: previous studies, H. Osada et al. (1988); cited from earlier work.

The IC50 is the concentration at which inhibition is half-maximal.

Counter-ions that a name gives are not always drawn.

Turning to “7-[4-(2-Methoxycarbonyl-6-hydroxybenzoyl)-3,5-dihydroxybenzoyloxy]-2-(hydroxybenzamido)bicyclo[2.2.1]heptane [Example 14]”, the IC50 in data set [1] is 10 µM.

Take `O=C(N[C@@H]1c2ccccc2C[C@H]1OC(=O)c1cc(O)c(C(=O)c2c(O)cccc2C(=O)O)c(O)c1)c1ccc(O)cc1` (relative stereo) [Example 3, anti-1-(4-Hydroxybenzamido)-2-[3,5-dihydroxy-4-(2-carboxy-6-hydroxybenzoyl)benzoyloxy]indane]: the IC50 in data set [2] came to 71 µM; in data set [4], 50 µM. Also, the “antiinflammatory activity: reduction of edema induced by phorbol ester” value (shortened to “antiinflammatory activity: reduction”) in data set [3] is given as “active”. For `O=C(N[C@@H]1c2ccccc2C[C@@H]1OC(=O)c1cc(O)c(C(=O)c2c(O)cccc2C(=O)O)c(O)c1)c1ccc(O)cc1` (relative stereo) [Example 4, syn-(4-Hydroxybenzamido)-2-[3,5-dihydroxy-4-(2-carboxy-6-hydroxybenzoyl)benzoyloxy]indane], the IC50 was 2.1 to 4 µM in data set [2] and 43 µM in data set [4]. As to `COC(=O)c1cccc(O)c1C(=O)c1c(O)cc(C(=O)O[C@@H]2Cc3ccccc3[C@H]2NC(=O)c2ccc(O)cc2)cc1O` (relative stereo) [Example 5], the values for the IC50 in data set [2], in data set [5] and in data set [4] were 23 µM, 50 µM and 5 µM, respectively. Besides, the “antiinflammatory activity: reduction” value in data set [3] was “active”. With `COC(=O)c1cccc(O)c1C(=O)c1c(O)cc(C(=O)O[C@@H]2C3CCN(CC3)C[C@H]2NC(=O)c2ccc(O)cc2)cc1O` (relative stereo) [Example 8, anti-4-[4-(2-methoxycarbonyl-6-hydroxybenzoyl)-3,5-dihydroxybenzoyloxy]-3-(4-hydroxybenzamido)-1-azabicyclo[3.2.2]nonane, trifluoroacetic acid salt], the results for the concentration for half-maximal inhibition (IC50) in data set [2], in data set [5] and in data set [4] were 74 µM, 12.5 µM and 92 µM, respectively. Take `O=C(N[C@H]1[C@H]2CC[C@H](C2)[C@H]1OC(=O)c1cc(O)c(C(=O)c2c(O)cccc2C(=O)O)c(O)c1)c1ccc(O)cc1` (relative stereo) [Example 12, syn-2-[4-(2-Carboxy-6-hydroxybenzoyl)-3,5-dihydroxybenzoyloxy]-3-(4-hydroxybenzamido)bicyclo[2.2.1]heptane]: the “antiinflammatory activity: reduction” value in data set [3] is “active”. For `O=C(NC1C2CCC(C2)C1OC(=O)c1cc(O)c(C(=O)c2c(O)cccc2C(=O)O)c(O)c1)c1ccc(O)cc1` (stereo not drawn) [Example 13, anti-2-[4-(2-Carboxy-6-hydroxybenzoyl)-3,5-dihydroxybenzoyloxy]-3-(4-hydroxybenzamido)bicyclo[2.2.1]heptane], in data set [3], the “antiinflammatory activity: reduction” value was “active”. For `COC(=O)c1cccc(O)c1C(=O)c1c(O)cc(C(=O)OC2C3CCC(C3)C2NC(=O)c2ccc(O)cc2)cc1O` (stereo not drawn) [Example 16, anti-2-[4-(2-Methoxycarbonyl-6-hydroxybenzoyl)-3,5-dihydroxybenzoyloxy]-3-(4-hydroxybenzamido)bicyclo[2.2.1]heptane], the IC50 in data set [5] came out at 25 µM; in data set [1], 10 µM. The “antiinflammatory activity: reduction” value in data set [3] was “active”.

As to `O=C(NC1C2CC(C3CCCC32)C1OC(=O)c1cc(O)c(C(=O)c2c(O)cccc2C(=O)O)c(O)c1)c1ccc(O)cc1` (stereo not drawn) [Example 20, 8-exo-[4-(2-Carboxy-6-hydroxybenzoyl)-3,5-dihydroxybenzoyloxy]-9-endo-(4-hydroxybenzamido)tricyclo[5.2.1.0 (2,6)]decane], the water solubility result in data set [6] was “not water-soluble”.

For `O=C(NC1C2CC(C3CCCC32)C1OC(=O)c1cc(O)c(C(=O)c2c(O)cccc2C(=O)O)c(O)c1)c1ccc(O)cc1` (stereo not drawn) [Example 21, 8-endo-[4-(2-Carboxy-6-hydroxybenzoyl)-3,5-dihydroxybenzoyl-oxy]-9-endo-(4-hydroxybenzamido)tricyclo[5.2.1.0 (2,6)]decane], the water solubility result in data set [6] is on record as “not water-soluble”. For `CN[C@@H]1C[C@H]2O[C@@](C)([C@@H]1OC)n1c3ccccc3c3c4c(c5c6ccccc6n2c5c31)C(=O)NC4` [staurosporine], the phorbol ester-induced blebbing entry in data set [7] was “inhibits”.
